Data set [1] has as its system rat spared nerve injury (SNI) model. It is filed as in vivo.
For data set [2] the test system is unchanged. It is filed as in vivo. This is another data set of the same source.
The subject of another data set is naïve male SD rats. Particulars: tat-CSM-1S by spinal delivery, over a 24 hour period.
Data set [3] concerns rat dorsal root ganglion (DRG) neurons. The data set can be described thus: Ouabain-induced increase in cytosolic Na+ (SBFI imaging) in DRG neurons. It is filed as cell-based.
The mark [4] stands for this setting: SNI rats, dose not given, p<0.05 vs BL-Post SNI.

“Also recorded” adds a separate entry of the source. Where two headings read alike, the source gives them in different places.

Regarding `CN1CC[C@]23c4c5ccc(O)c4O[C@H]2[C@@H](O)C=C[C@H]3[C@H]1C5` [morphine], in data set [1] (rat, in vivo), the “antiallodynic effect in SNI (reference drugs)” value is recorded as “Antiallodynic effects”. Further, in data set [2] (rat, in vivo), the “antihyperalgesic effect in SNI (reference drugs)” value is recorded as “Antihyperalgesic effects”.

As to `NCC1(CC(=O)O)CCCCC1` [gabapentin], the “motor impairment / sedation on the rotarod” value is recorded as “decrease in the ability of naïve rats to remain on the rotating rod” with naïve male SD rats and “significant sedation/motor impairment” in the data set with naïve male SD rats (listed as Gabapentin). The “antiallodynic effect in SNI (reference drugs)” value in data set [1] (setting [4]) is given as “Antiallodynic effects”. Besides, the “antihyperalgesic effect in SNI (reference drugs)” value in data set [2] (setting [4]) is reported as “Antihyperalgesic effects”.

Take “Protox-II: a spider toxin that preferentially blocks NaV1.7 (YCQKWMWTCDSERKCCEGMVCRLWCKKKLW)”: the “ouabain-induced increase in [Na+]c” value in data set [3] (10 μM Protox-II, 1 mM ouabain) is listed as “inhibited; also recorded: attenuate”.

In the case of `NC1=N[C@H](O)[C@H]2[C@H]3O[C@]4(O)O[C@@H]([C@@H](O)[C@@]2(N1)[C@@H]4O)[C@]3(O)CO` [tetrodotoxin], in data set [3], the “ouabain-induced increase in [Na+]c” value is recorded as “inhibited; also recorded: attenuate”.

Source of the values: US10287334B2, “Non-narcotic CRMP2 peptides targeting sodium channels for chronic pain” (priority 2014, dated 2019).
